According to patent publication US11691989B2, “Macrocyclic indoles as Mcl-1 inhibitors” (ASCENTAGE PHARMA (SUZHOU) CO., LTD., priority 2018, dated 2023):

Key:
[1] = Microsome clearance assay, human; format: in vitro ADME; settings: 0.5 mg/ml protein, 1 mM NADPH, 60 minutes; for Human Liver Microsome Clint (μL/min/mg protein): human liver microsomes, 5 μM; for microsomal CLint at 5 μM: human, pooled liver microsomes, pH 7.4, human liver microsomes, read-out: Human Liver Microsome Clint (μL/min/mg protein)
Procedure: (§1) Representative Compounds of the Disclosure were tested in a microsome clearance assay. Pooled liver microsomes (20 mg/ml) from human, male Wister rat, and male CD-1 mouse were obtained from BD Bioscience (Franklin Lakes, N.J. USA). Incubation reaction mixtures contained a final concentration of 0.1M sodium phosphate buffer (pH 7.4), 0.5 mg/ml microsomal protein, 5 μM of test sample and 1 mM NADPH in a total volume of 400 μl. The incubations were done for 60 minutes and 300 μl of the mixtures was transferred to 150 μl of ice cold methanol to terminate reactions. After vortexes for 3 minutes and centrifuged at 4000 rpm at 4° C. for 10 minutes, the clear supernatant was used directly for analysis. The samples were analyzed by Applied Biosystems API 3200 Q TRAP LC/MS/MS system using electrospray ionization mode.

[2] = Microsome clearance assay, rat; format: in vitro ADME; settings: 0.5 mg/ml protein, 1 mM NADPH, 60 minutes; for Rat Liver Microsome Clint (μL/min/mg protein): rat liver microsomes, 5 μM; for microsomal CLint at 5 μM: male, Wister, rat, pooled liver microsomes, pH 7.4, rat liver microsomes, read-out: Rat Liver Microsome Clint (μL/min/mg protein)
Procedure: as §1

[3] = Microsome clearance assay, mouse; format: in vitro ADME; settings: 0.5 mg/ml protein, 1 mM NADPH, 60 minutes; for Mouse Liver Microsome Clint (μL/min/mg protein): mouse liver microsomes, 5 μM; for microsomal CLint at 5 μM: male, CD-1, mouse, pooled liver microsomes, pH 7.4, mouse liver microsomes, read-out: Mouse Liver Microsome Clint (μL/min/mg protein)
Procedure: as §1

OPM-2 cells = assay: Cell viability assay (OPM-2 cells), CCK-8; format: cell-based; settings: 5% FBS
Procedure: Cell Viability Assay (OPM-2 cells)
OPM-2 cells were obtained from Deutsche Sammlung von Mikroorganismen and Zellkulturen GmbH (DSMZ). Cells were maintained in the recommended culture medium with 10% FBS at 37° C. and an atmosphere of 5% CO2.
The effect of representative Compounds of the Disclosure on cell viability was determined using Cell Counting Kit-8 (CCK-8) assay (Shanghai Life iLab Bio Technology) according to the manufacturer's instructions. Each tested compound was serially diluted in culture medium, 100 μL of the compound dilution was added into 96-well plates. 100 μL of an OPM-2 cell suspension (20000 cells/well) in culture medium were seeded into the corresponding well of the plate and the cells were incubated at 37° C. in an atmosphere of 5% CO2 for 24 hours. In the next day, 20 μL of CCK-8 solution was added to each well of the plate and incubated for 4 hours.
The plates were read at 450 nm on the microplate spectrophotometer (SpectraMax plus 384, Molecular devices). The readings were normalized to the vehicle cells, and the IC50 was calculated by nonlinear regression analysis using GraphPad Prism 6 software.

NCI-H929 cells = assay: Cell viability assay (NCI-H929 cells), CCK-8; format: cell-based; settings: 5% FBS
Procedure: Cell Viability Assay (NCI-H929 cells)
NCI-H929 cells were obtained from American Type Culture Collection (ATCC). Cells were maintained in the recommended culture medium (RPMI 1640) with 10% FBS and 0.05 mM BME at 37° C. and an atmosphere of 5% CO2.
The effect of Compounds on cell viability was determined using Cell Counting Kit-8 (CCK-8) assay according to the manufacturer's instructions. 95 μL of NCI-H929 cell suspension (20000 cells/well) in culture medium were seeded into 96-well plates and cultured 4 hrs. Each tested compound was serially diluted in DMSO, then 5 μL of the compound or DMSO was diluted in 95 μL medium once more. At last, 5 μL of the compound dilution was added to the corresponding well of the cell plate. After the addition of the tested compound, the cells were incubated at 37° C. in an atmosphere of 5% CO2 for 24 hrs. At the end, 10 μL of CCK-8 solution was added to each well of the plate and incubated for 1-4 hours. The plates were read at 450 nm on the microplate reader (BioTek Synergy 1MF). The readings were normalized to the vehicle cells, and the IC50 was calculated by nonlinear regression analysis using GraphPad Prism 6 software.

[4] = molecular target: Mcl-1 protein (residues 171-323) (Homo sapiens (Human), UniProt Q07820); assay: Inhibition of Mcl-1 by fluorescence polarization (FP) competitive binding assay with FAM-Bid tracer; settings: 2 nM FAM-Bid, 20 nM Mcl-1, 30 min, read-out: Mc1-1 (FP)
Procedure: Inhibition of Mcl-1 by fluorescence polarization (FP) assay.
The method used a fluorescein labelled peptide (FAM-Bid) which binds to the Mcl-1 protein leading to an increased anisotropy measured in milli-polarization (mP) values using a plate reader.
A 10-points serial dilution of each compound was prepared in DMSO and 5 μL solution was transferred into flat bottomed, 96-well back plate (final DMSO concentration 5%). 120 μL of Buffer (PBS, 0.01% BGG (Sigma Cat. #SRE0011), 0.01% Triton X-100), containing the Fluorescein labelled peptide (Final concentration 2 nM) and Mcl-1 protein (final concentration 20 nM) was then added. […] 10-points dose response curves were plotted with GraphPad software using Sigmoidal Dose-Response Model and the IC50 values were determined by nonlinear regression fitting of the competition curves.

Sequence of Mcl-1 protein (residues 171-323) (Q07820 171-323): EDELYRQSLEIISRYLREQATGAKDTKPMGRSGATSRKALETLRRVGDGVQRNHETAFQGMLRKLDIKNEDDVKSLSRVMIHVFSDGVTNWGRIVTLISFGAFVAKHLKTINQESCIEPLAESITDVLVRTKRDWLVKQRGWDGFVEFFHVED

| Compound | Human Liver Microsome Clint (μL/min/mg protein) [1] | Rat Liver Microsome Clint (μL/min/mg protein) [2] | Mouse Liver Microsome Clint (μL/min/mg protein) [3] | IC50 (NCI-H929 cells; 24 hrs) | IC50 [4] | microsomal CLint at 5 μM [1] | microsomal CLint at 5 μM [2] | microsomal CLint at 5 μM [3] | IC50 (NCI-H929 cells; Homo sapiens, NCI-H929, 24 h) | IC50 (OPM-2 cells; 24 hours) | IC50 (OPM-2 cells; Homo sapiens, OPM-2, 24 h) |
| --- | --- | --- | --- | --- | --- | --- | --- | --- | --- | --- | --- |
| Cc1c(C(=O)O)n2c3ccc(Cl)c(c13)-c1c(nn(C)c1C)CSCc1cc(n(C)n1)CSc1cc(c3ccc(F)cc3c1)OCCC2 (atropisomer, axis not shown) [Cpd. No. 16, (S)-(Z)-1^5-chloro-9^6-fluoro-1^3,2^1,2^5,6^1-tetramethyl-1^111,2^1H,6^1H-10-oxa-4,8-dithia-1(4,1)-indola-2(4,3),6(3,5)-dipyrazola-9(3,1)-naphthalenacyclotridecaphane-1^2-carboxylic acid] | 23.4 μL/min/mg protein | 64.6 μL/min/mg protein | 135 μL/min/mg protein | 2240 nM | 3200 nM |  |  |  |  | 4050 nM |  |
| Cc1c(C(=O)O)n2c3ccc(Cl)c(c13)-c1c(nn(C)c1C)CSCc1cc(n(C(C)C)n1)CSc1cc(c3ccc(F)cc3c1)OCCC2 [Cpd. No. 17, (Z)-1^5-chloro-9^6-fluoro-6^1-isopropyl-1^3,2^1,2^5-trimethyl-1^1H,2^1H,6^1H-10-oxa-4,8-dithia-1(4,1)-indola-2(4,3),6(3,5)-dipyrazola-9(3,1)-naphthalenacyclotridecaphane-1^2-carboxylic acid] |  |  |  |  |  | 19.4 µL/min/mg | 46.6 µL/min/mg | 29.2 µL/min/mg | 77 nM |  | 94 nM |
| Cc1c(C(=O)O)n2c3ccc(Cl)c(c13)-c1c(nn(C)c1C)CN(C(=O)c1nccn1C)Cc1cc(n(C)n1)CSc1cc(c3ccc(F)cc3c1)OCCC2 [Cpd. No. 44, (Z)-1^5-chloro-9^6-fluoro-1^3,2^1,2^5,6^1-tetramethyl-4-(1-methyl-1H-imidazole-2-carbonyl)-1^1H,2^1H,6^1H-10-oxa-8-thia-4-aza-1(4,1)-indola-2(4,3),6(3,5)-dipyrazola-9(3,1)-naphthalenacyclotridecaphane-1^2-carboxylic acid] |  |  |  |  | 23 nM |  |  |  | 780 nM |  | 1160 nM |
| Cc1c(C(=O)O)n2c3ccc(Cl)c(c13)-c1c(nn(C)c1C)CN(CC(=O)N(C)C)Cc1cc(n(C)n1)CSc1cc(c3ccc(F)cc3c1)OCCC2 [Cpd. No. 54, (Z)-1^5-chloro-4-(2-(dimethylamino)-2-oxoethyl)-9^6-fluoro-1^3,2^1,2^5, 6^1--tetramethyl-1^1H,2^1H,6^1H-10-oxa-8-thia-4-aza-1(4,1)-indola-2(4,3),6(3,5)-dipyrazola-9(3,1)-naphthalenacyclotridecaphane-1^2-carboxylic acid] |  |  |  |  | 27 nM |  |  |  | 673 nM |  | 3480 nM |
| Cc1c(C(=O)O)n2c3ccc(Cl)c(c13)-c1c(nn(C)c1C)CN(c1ccccc1)Cc1cc(n(C)n1)CSc1cc(c3ccc(F)cc3c1)OCCC2 [Cpd. No. 55, (Z)-1^5-chloro-9^6-fluoro-1^3,2^1,2^5,6^1-tetramethyl-4-phenyl-1^1H,2^1H,6^1E-10-oxa-8-thia-4-aza-1(4,1)-indola-2(4,3),6(3,5)-dipyrazola-9(3,1)-naphthalenacyclotridecaphane-1^2-carboxylic acid] |  |  |  |  | 24 nM |  |  |  | 145 nM |  | 744 nM |

Further compounds by falling IC50 [4], results first:

| Human Liver Microsome Clint (μL/min/mg protein) [1] | Rat Liver Microsome Clint (μL/min/mg protein) [2] | Mouse Liver Microsome Clint (μL/min/mg protein) [3] | IC50 (NCI-H929 cells; 24 hrs) | IC50 [4] | microsomal CLint at 5 μM [1] | microsomal CLint at 5 μM [2] | microsomal CLint at 5 μM [3] | IC50 (NCI-H929 cells; Homo sapiens, NCI-H929, 24 h) | Compound | IC50 (OPM-2 cells; 24 hours) | IC50 (OPM-2 cells; Homo sapiens, OPM-2, 24 h) |
| --- | --- | --- | --- | --- | --- | --- | --- | --- | --- | --- | --- |
|  |  |  |  | 21 nM | 86.8 µL/min/mg | 299 µL/min/mg | 325 µL/min/mg | 70 nM | CCc1c(C(=O)O)n2c3ccc(Cl)c(c13)-c1c(nn(C)c1C)CSCc1cc(n(C)n1)CSc1cc(c3ccccc3c1)OCCC2 [Cpd. No. 8, (Z)-1^5-chloro-1^3-ethyl-2^1,2^5,6^1-trimethyl-1^1H,2^1H,6^111-10-oxa-4,8-dithia-1(4,1)-indola-2(4,3),6(3,5)-dipyrazola-9(3,1)-naphthalenacyclotridecaphane-1^2-carboxylic acid] |  | 268 nM |
|  |  |  |  | 12 nM |  |  |  | 243 nM | Cc1nn(C)c2c1-c1c(Cl)ccc3c1c(C)c(C(=O)O)n3CCCOc1cc(cc3ccccc13)SCc1cc(nn1C)CN(S(C)(=O)=O)C2 [Cpd. No. 48, (Z)-1^5-chloro-1^3,2^1,2^3,6^1-tetramethyl-4-(methylsulfonyl)-1^1H,2^1H,6^1H-10-oxa-8-thia-4-aza-1(4,1)-indola-2(4,5),6(3,5)-dipyrazola-9(3,1)-naphthalenacyclotridecaphane-1^2-carboxylic acid] |  | 587 nM |
|  |  |  |  | 7 nM | 35.2 µL/min/mg | 34.4 µL/min/mg | 49 µL/min/mg | 165 nM | Cc1c(C(=O)O)n2c3ccc(Cl)c(c13)-c1c(nn3c1COCC3)CSCc1cc(n(C)n1)CSc1cc(c3ccccc3c1)OCCC2 [Cpd. No. 1, (Z)-1^5-chloro-1^3,6^1-dimethyl-2^6,2^7-dihydro-1^1H,2^4H,6^1H-10-oxa-4,8-dithia-2(3,2)-pyrazolo[5,1-c][1,4]oxazina-1(4,1)-indola-6(3,5)-pyrazola-9(3,1)-naphthalenacyclotridecaphane-1^2-carboxylic acid] |  | 1540 nM |
| <2.8 μL/min/mg protein | 8.6 μL/min/mg protein | 16.0 μL/min/mg protein | 107 nM | 5 nM |  |  |  |  | Cc1c(C(=O)O)n2c3ccc(Cl)c(c13)-c1c(nn(C)c1C)CN(S(C)(=O)=O)Cc1cc(n(C)n1)CSc1cc(c3ccc(F)cc3c1)OCCC2 (atropisomer, axis not shown) [Cpd. No. 33, (R)-(Z)-1^5-chloro-9^6-fluoro-1^3,2^1,2^5, 6^1-tetramethyl-4-(methylsulfonyl)-1^1H,2^1H, 6′H-10-oxa-8-thia-4-aza-1(4,1)-indola-2(4,3),6(3,5)-dipyrazola-9(3,1)-naphthalenacyclotridecaphane-1^2-carboxylic acid] | 190 nM |  |
|  |  |  |  | 5 nM |  |  |  | 170 nM | Cc1c(C(=O)O)n2c3ccc(Cl)c(c13)-c1c(nn(C)c1C)CN(S(=O)(=O)C(F)(F)F)Cc1cc(n(C)n1)CSc1cc(c3ccccc3c1)OCCC2 [Cpd. No. 47, (Z)-1^5-chloro-1^3,2^1,2^5,6^1-tetramethyl-4-((trifluoromethyl)sulfonyl)-1^1H,2^1H,6^1H-10-oxa-8-thia-4-aza-1(4,1)-indola-2(4,3),6(3,5)-dipyrazola-9(3,1)-naphthalenacyclotridecaphane-1^2-carboxylic acid] |  | 229 nM |
|  |  |  | 204 nM | 5 nM |  |  |  |  | (Z)-1^5-chloro-9^6-fluoro-1^3,2^1,2^3,6^1-tetramehtyl-4-(methylsulfonyl)-1^1H,2^1H,6^1H-10-oxa-8-thia-4-aza-1(4,1)-indola-2(4,5),6(3,5)-dipyrazola-9(3,1)- naphthalenacyclotridecaphane-1^2-carboxylic acid [Cpd. No. 49] | 308 nM |  |
